This is an account of results in US10968264B2, “Cyclic peptide tyrosine tyrosine compounds as modulators of neuropeptide Y receptors” (priority 2016, dated 2021).

Each structure is given as a SMILES string. Numbered stars: 1 amine (or outer) side, 2 acyl side, 3 side chain; on linkers, the order of the positions; unused ones are H or OH. Bridge positions count the residues as written; N and C are the ends. Side chains are listed from the residue outwards. Peptide text beside a SMILES is read from it. * marks the point of attachment. Argψ(CH2NH)TyrNH2 = N=C(N)NCCC[C@@H](CN[C@@H](Cc1ccc(O)cc1)C(N)=O)N*; C18 diacid = O=C(O)CCCCCCCCCCCCCCCCC(=O)*; γGlu = O=C(O)[C@H](CCC(=O)[*:2])N[*:1]; AEEA = NCCOCCOCC(=O)O

This assay has as its target T1, human NPY2R (Homo sapiens, UniProt P49146).
T1 construct: expressed in transfected cells; host or cells: HEK cells
Nature of the assay: Human NPY2R cAMP in vitro potency assay (hY2 assay), inhibition of forskolin-induced cAMP, LANCE FRET. Format: cell-based. The protocol: The method used to test the potency of PYY analogs in vitro was a cell based assay designed to measure inhibition of forskolin-induced cAMP produced by adenylate cyclase through modulation of the human NPY2R Gi-protein coupled receptor.
Cells were thawed from cryopreservation and added to 15 ml of cell media (DMEM/high glucose (Cellgro), 10% FBS (Hyclone), 1% Pen/Strep (Life Technologies), 1% L-Glutamine (Thermo Scientific), 1% Na Pyruvate (Thermo Scientific)). […] Supernatants in the assay plate were decanted. Dilutions of PYY analogs and controls were prepared in 1×HBSS (Cellgro), 5 mM HEPES (Cellgro), 0.1% BSA (PerkinElmer) and 0.5 mM 3-isobutyl-1-methylxanthine (Sigma), and 6 μL/well of each sample were added to designated wells. […] All samples were measured in triplicate. Data were analyzed using the Crucible in-house data analysis software, designed by Eudean Shaw. The unknown cAMP concentrations within each well were interpolated from the reference standards of known cAMP concentrations included within each plate.
For orientation: In TR-FRET formats the signal depends on donor and acceptor labels being close together.

Setting [1] is: Y2R EC50 (nM) SEQ ID NO: 2-39, human NPY2R transfected HEK cells, NTSC-PYY compound.

T1 sequence (P49146 whole entry): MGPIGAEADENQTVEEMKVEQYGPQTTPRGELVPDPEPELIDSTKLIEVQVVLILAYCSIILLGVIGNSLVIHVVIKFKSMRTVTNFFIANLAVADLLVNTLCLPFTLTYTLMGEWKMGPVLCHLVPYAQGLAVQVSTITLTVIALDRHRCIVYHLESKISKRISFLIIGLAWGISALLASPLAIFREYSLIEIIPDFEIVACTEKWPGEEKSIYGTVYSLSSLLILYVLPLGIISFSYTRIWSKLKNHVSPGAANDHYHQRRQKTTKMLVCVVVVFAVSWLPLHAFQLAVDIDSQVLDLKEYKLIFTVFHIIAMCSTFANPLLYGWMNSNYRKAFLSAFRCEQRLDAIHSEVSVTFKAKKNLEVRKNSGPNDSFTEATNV

In general, EC50 refers to the concentration needed to bring the measured effect to its halfway point. Lower therefore signals greater potency. For the compound `CC[C@H](C)[C@@H]1NC(=O)CNC(=O)CC[C@@H](C(=O)N[C@H](C(=O)N[C@H](C(=O)N[C@@H](CCCNC(=N)N)C(=O)N[C@@H](CCC(N)=O)C(=O)N[C@@H](CCCNC(=N)N)CN[C@@H](Cc2ccc(O)cc2)C(N)=O)[C@@H](C)O)C(C)C)NC(=O)[C@H](CC(N)=O)NC(=O)[C@H](CC(C)C)NC(=O)[C@H](Cc2ccc(O)cc2)NC(=O)[C@H](Cc2c[nH]cn2)NC(=O)[C@H](CCCNC(=N)N)NC(=O)[C@H](CC(C)C)NC(=O)[C@H](CO)NC(=O)[C@H](C)NC(=O)[C@H](Cc2ccc(O)cc2)NC(=O)[C@H](Cc2ccc(O)cc2)NC(=O)[C@H](CCCNC(=N)N)NC(=O)[C@H](CC(N)=O)NC(=O)[C@H](CC(C)C)NC(=O)[C@H](CCC(=O)O)NC(=O)[C@H](CCC(=O)O)NC(=O)[C@@H]2CCCN2C(=O)[C@H](CO)NC(=O)[C@H](C)NC(=O)[C@H](CCCCNC(=O)COCCOCCNC(=O)COCCOCCNC(=O)CC[C@H](NC(=O)CCCCCCCCCCCCCCCCC(=O)O)C(=O)O)NC(=O)[C@H](CCC(=O)O)NC(=O)CNC(=O)[C@@H]2CCCN2C(=O)[C@H](C)NC(=O)[C@H](CCC(=O)O)NC(=O)[C@@H]2CCCN2C(=O)[C@H](CO)NC1=O` [SEQ ID NO: 72] (GISPEAPGEK([AEEA-AEEA-γGlu-C18 diacid])ASPEELNRYYASLRHYLNEVTRQ-{Argψ(CH2NH)TyrNH2}; lactam N-29), the midpoint of the response under setting [1], the EC50, lay at 1.75 nM. This counts as single-digit nanomolar.

The compound `CCCCCCCCCCCCCCCC(=O)N[C@@H](CCC(=O)NCCCC[C@@H]1NC(=O)[C@H](CC(N)=O)NC(=O)[C@H](CC(C)C)NC(=O)[C@H](Cc2ccc(O)cc2)NC(=O)[C@H](C)NC(=O)[C@H](CCCNC(=N)N)NC(=O)[C@H](CC(C)C)NC(=O)[C@H](CO)NC(=O)[C@H](C)NC(=O)[C@H](Cc2ccc(O)cc2)NC(=O)[C@H](Cc2ccc(O)cc2)NC(=O)[C@H](CCCNC(=N)N)NC(=O)[C@H](CC(N)=O)NC(=O)[C@H](CC(C)C)NC(=O)[C@H](CCC(=O)O)NC(=O)[C@H](CCC(=O)O)NC(=O)[C@@H]2CCCN2C(=O)[C@H](CO)NC(=O)[C@H](C)NC(=O)[C@H](CC(=O)O)NC(=O)[C@H](CCC(=O)O)NC(=O)CNC(=O)[C@@H]2CCCN2C(=O)[C@H](C)NC(=O)[C@H](CCC(=O)O)NC(=O)[C@@H]2CCCN2C(=O)[C@H](C)NC(=O)[C@H]([C@@H](C)CC)NC(=O)c2cccc(c2)CSCC[C@@H](C(=O)N[C@H](C(=O)N[C@@H](CCCNC(=N)N)C(=O)N[C@@H](CCC(N)=O)C(=O)N[C@@H](CCCNC(=N)N)C(=O)N[C@@H](Cc2ccc(O)cc2)C(N)=O)[C@@H](C)O)NC1=O)C(=O)O` [SEQ ID NO: 21] showed a concentration for a half-maximal effect (EC50) under setting [1] of 0.49 nM.

Regarding `CCCCCCCCCCCCCCCC(=O)N[C@@H](CCC(=O)NCCCC[C@@H]1NC(=O)[C@H](CC(N)=O)NC(=O)[C@H](CC(C)C)NC(=O)[C@H](Cc2ccc(O)cc2)NC(=O)[C@H](C)NC(=O)[C@H](CCCNC(=N)N)NC(=O)[C@H](CC(C)C)NC(=O)[C@H](CO)NC(=O)[C@H](C)NC(=O)[C@H](Cc2ccc(O)cc2)NC(=O)[C@H](Cc2ccc(O)cc2)NC(=O)[C@H](CCCNC(=N)N)NC(=O)[C@H](CC(N)=O)NC(=O)[C@H](CC(C)C)NC(=O)[C@H](CCC(=O)O)NC(=O)[C@H](CCC(=O)O)NC(=O)[C@@H]2CCCN2C(=O)[C@H](CO)NC(=O)[C@H](C)NC(=O)[C@H](CC(=O)O)NC(=O)[C@H](CCC(=O)O)NC(=O)CNC(=O)[C@@H]2CCCN2C(=O)[C@H](C)NC(=O)[C@H](CCC(=O)O)NC(=O)[C@@H]2CCCN2C(=O)[C@H](CCC(=O)O)NC(=O)[C@H]([C@@H](C)CC)NC(=O)c2cccc(c2)CSCC[C@@H](C(=O)N[C@H](C(=O)N[C@@H](CCCNC(=N)N)C(=O)N[C@@H](CCC(N)=O)C(=O)N[C@@H](CCCNC(=N)N)C(=O)N[C@@H](Cc2ccc(O)cc2)C(N)=O)[C@@H](C)O)NC1=O)C(=O)O` [SEQ ID NO: 22], the midpoint of the response (Y2R EC50 (nM) SEQ ID NO: 2-39), the EC50, lay at 4.4 nM.

With `CC[C@H](C)[C@@H]1NC(=O)CCNC(=O)CSC[C@@H](C(=O)N[C@H](C(=O)N[C@H](C(=O)N[C@@H](CCCNC(=N)N)C(=O)N[C@@H](CCC(N)=O)C(=O)N[C@@H](CCCNC(=N)N)CN[C@@H](Cc2ccc(O)cc2)C(N)=O)[C@@H](C)O)C(C)C)NC(=O)[C@H](CC(N)=O)NC(=O)[C@H](CC(C)C)NC(=O)[C@H](Cc2ccc(O)cc2)NC(=O)[C@H](Cc2c[nH]cn2)NC(=O)[C@H](CCCNC(=N)N)NC(=O)[C@H](CC(C)C)NC(=O)[C@H](CO)NC(=O)[C@H](C)NC(=O)[C@H](Cc2ccc(O)cc2)NC(=O)[C@H](Cc2ccc(O)cc2)NC(=O)[C@H](CCCNC(=N)N)NC(=O)[C@H](CC(N)=O)NC(=O)[C@H](CC(C)C)NC(=O)[C@H](CCC(=O)O)NC(=O)[C@H](CCC(=O)O)NC(=O)[C@@H]2CCCN2C(=O)[C@H](CO)NC(=O)[C@H](C)NC(=O)[C@H](CCCCNC(=O)COCCOCCNC(=O)COCCOCCNC(=O)CC[C@H](NC(=O)CCCCCCCCCCCCCCCCC(=O)O)C(=O)O)NC(=O)[C@H](CCC(=O)O)NC(=O)CNC(=O)[C@@H]2CCCN2C(=O)[C@H](C)NC(=O)[C@H](CCC(=O)O)NC(=O)[C@@H]2CCCN2C(=O)[C@H](CCCCN)NC1=O` [SEQ ID NO: 68], the EC50 (Y2R EC50 (nM) SEQ ID NO: 2-39) was found to be 0.27 nM. Against the preceding compound, the EC50 is about 16-fold lower.

On to `CC[C@H](C)[C@@H]1NC(=O)CNC(=O)CC[C@@H](C(=O)N[C@H](C(=O)N[C@H](C(=O)N[C@@H](CCCNC(=N)N)C(=O)N[C@@H](CCC(N)=O)C(=O)N[C@@H](CCCNC(=N)N)CN[C@@H](Cc2ccc(O)cc2)C(N)=O)[C@@H](C)O)C(C)C)NC(=O)[C@H](CC(N)=O)NC(=O)[C@H](CC(C)C)NC(=O)[C@H](Cc2ccc(O)cc2)NC(=O)[C@H](Cc2c[nH]cn2)NC(=O)[C@H](CCCNC(=N)N)NC(=O)[C@H](CC(C)C)NC(=O)[C@H](CO)NC(=O)[C@H](C)NC(=O)[C@H](Cc2ccc(O)cc2)NC(=O)[C@H](Cc2ccc(O)cc2)NC(=O)[C@H](CCCNC(=N)N)NC(=O)[C@H](CC(N)=O)NC(=O)[C@H](CC(C)C)NC(=O)[C@H](CCC(=O)O)NC(=O)[C@H](CCC(=O)O)NC(=O)[C@@H]2CCCN2C(=O)[C@H](CO)NC(=O)[C@H](C)NC(=O)[C@H](CCCCN)NC(=O)[C@H](CCC(=O)O)NC(=O)CNC(=O)[C@@H]2CCCN2C(=O)[C@H](C)NC(=O)[C@H](CCC(=O)O)NC(=O)[C@@H]2CCCN2C(=O)[C@H](CO)NC1=O` [SEQ ID NO: 70, [cyclo-(G2-E30), S4, K11, psi-(R35,Y36)]-PYY2-36] (HELM PEPTIDE1{G.I.S.P.E.A.P.G.E.K.A.S.P.E.E.L.N.R.Y.Y.A.S.L.R.H.Y.L.N.E.V.T.R.Q.[N=C(N)NCCC[C@@H](CN[C@@H](Cc1ccc(O)cc1)C(N)=O)N[*:1]]}$PEPTIDE1,PEPTIDE1,1:R1-29:R3$$$V2.0), for which the EC50 (Y2R EC50 (nM) SEQ ID NO: 2-39) turned out to be 0.02 nM.
